This passage reports IC50 and Activity results from ChEMBL document CHEMBL3994647, “Synthesis and in vitro cytotoxic evaluation of new 1H-benzo[d]imidazole derivatives of dehydroabietic acid” (Bioorg Med Chem Lett, 2017).

Molecules are shown by their SMILES. pIC50: −log10 of the molar value.

For one assay, the system named is HepG2. Put plainly: Cytotoxicity against human HepG2 cells assessed as reduction in cell viability after 48 hrs by MTT assay. The format is functional, cell-based. Particulars: HepG2, 48 h. Background: Tetrazolium dyes change colour on reduction, which living cells bring about.
In another assay the test system is L02. The experiment in a line: Cytotoxicity against human LO2 cells assessed as reduction in cell viability after 48 hrs by MTT assay. The format is cell-based. Particulars: L02, 48 h.
Assay [1] deals with SMMC-7721. The experiment in a line: Cytotoxicity against human SMMC7721 cells assessed as reduction in cell viability after 48 hrs by MTT assay. It is filed as functional, cell-based. Particulars: SMMC-7721, 48 h.
In assay [2] the test system is SMMC-7721. Put plainly: Induction of apoptosis in human SMMC7721 cells assessed as late apoptotic cells at 0.72 uM after 24 hrs by Annexin V-APC/7-AAD staining based flow cytometry (reference value: 10.72%). It is filed as functional. For orientation: In flow cytometry, cells or beads pass a laser one at a time.
Assay [3] concerns SMMC-7721. Put plainly: Cell cycle arrest in human SMMC7721 cells assessed as accumulation at G2/M phase after 24 hrs by propidium iodide staining based flow cytometry. The format is functional.
The subject of assay [4] is SMMC-7721. The experiment in a line: Induction of apoptosis in human SMMC7721 cells after 24 hrs by Annexin V-APC/7-AAD staining based flow cytometry. It is filed as functional, cell-based.
The test system of assay [5] is SMMC-7721. The experiment in a line: Induction of apoptosis in human SMMC7721 cells assessed as early apoptotic cells at 0.36 uM after 24 hrs by Annexin V-APC/7-AAD staining based flow cytometry (reference value: 7.44%). It is filed as functional.
The test system of assay [6] is SMMC-7721. The experiment in a line: Induction of apoptosis in human SMMC7721 cells assessed as early apoptotic cells at 0.72 uM after 24 hrs by Annexin V-APC/7-AAD staining based flow cytometry (reference value: 7.44%). The format is functional.
Assay [7] has as its system SMMC-7721. Put plainly: Cell cycle arrest in human SMMC7721 cells assessed as accumulation at S phase at 0.18 uM after 24 hrs by propidium iodide staining based flow cytometry (reference value: 23.68%). It is filed as functional.
Assay [8] deals with SMMC-7721. Put plainly: Induction of apoptosis in human SMMC7721 cells assessed as late apoptotic cells at 0.36 uM after 24 hrs by Annexin V-APC/7-AAD staining based flow cytometry (reference value: 10.72%). The format is functional.
The subject of assay [9] is SMMC-7721. Put plainly: Induction of apoptosis in human SMMC7721 cells assessed as early apoptotic cells at 0.18 uM after 24 hrs by Annexin V-APC/7-AAD staining based flow cytometry (reference value: 7.44%). The format is functional.
The subject of assay [10] is SMMC-7721. The experiment in a line: Induction of apoptosis in human SMMC7721 cells assessed as late apoptotic cells at 0.18 uM after 24 hrs by Annexin V-APC/7-AAD staining based flow cytometry (reference value: 10.72%). The format is functional.
The test system of assay [11] is SMMC-7721. Put plainly: Cell cycle arrest in human SMMC7721 cells assessed as accumulation at G0/G1 phase at 0.18 uM after 24 hrs by propidium iodide staining based flow cytometry (reference value: 72.89%). The format is functional.
Assay [12] deals with SMMC-7721. The experiment in a line: Cell cycle arrest in human SMMC7721 cells assessed as accumulation at S phase at 0.72 uM after 24 hrs by propidium iodide staining based flow cytometry (reference value: 23.68%). The format is functional.
The test system of assay [13] is SMMC-7721. Put plainly: Cell cycle arrest in human SMMC7721 cells assessed as accumulation at S phase at 0.36 uM after 24 hrs by propidium iodide staining based flow cytometry (reference value: 23.68%). It is filed as functional.
Assay [14] concerns SMMC-7721. The experiment in a line: Cell cycle arrest in human SMMC7721 cells assessed as accumulation at G2/M phase at 0.72 uM after 24 hrs by propidium iodide staining based flow cytometry (reference value: 3.43%). The format is functional.
The subject of assay [15] is SMMC-7721. Put plainly: Cell cycle arrest in human SMMC7721 cells assessed as accumulation at G2/M phase at 0.36 uM after 24 hrs by propidium iodide staining based flow cytometry (reference value: 3.43%). It is filed as functional.
The test system of assay [16] is SMMC-7721. Put plainly: Induction of apoptosis in human SMMC7721 cells assessed as necrotic cells at 0.36 uM after 24 hrs by Annexin V-APC/7-AAD staining based flow cytometry (reference value: 0.77%). The format is functional.
Assay [17] relates to SMMC-7721. The experiment in a line: Cell cycle arrest in human SMMC7721 cells assessed as accumulation at G0/G1 phase at 0.36 uM after 24 hrs by propidium iodide staining based flow cytometry (reference value: 72.89%). The format is functional.
Assay [18] has as its system SMMC-7721. The experiment in a line: Cell cycle arrest in human SMMC7721 cells assessed as accumulation at G2/M phase at 0.18 uM after 24 hrs by propidium iodide staining based flow cytometry (reference value: 3.43%). It is filed as functional.
Assay [19] has as its system SMMC-7721. The experiment in a line: Induction of apoptosis in human SMMC7721 cells assessed as live cells at 0.36 uM after 24 hrs by Annexin V-APC/7-AAD staining based flow cytometry (reference value: 81.07%). The format is functional.
Assay [20] concerns SMMC-7721. Put plainly: Induction of apoptosis in human SMMC7721 cells assessed as necrotic cells at 0.72 uM after 24 hrs by Annexin V-APC/7-AAD staining based flow cytometry (reference value: 0.77%). The format is functional.
In assay [21] the test system is SMMC-7721. Put plainly: Induction of apoptosis in human SMMC7721 cells assessed as live cells at 0.72 uM after 24 hrs by Annexin V-APC/7-AAD staining based flow cytometry (reference value: 81.07%). It is filed as functional.
Assay [22] relates to SMMC-7721. Put plainly: Cell cycle arrest in human SMMC7721 cells assessed as accumulation at G0/G1 phase at 0.72 uM after 24 hrs by propidium iodide staining based flow cytometry (reference value: 72.89%). The format is functional.
Assay [23] concerns SMMC-7721. The experiment in a line: Induction of apoptosis in human SMMC7721 cells assessed as live cells at 0.18 uM after 24 hrs by Annexin V-APC/7-AAD staining based flow cytometry (reference value: 81.07%). The format is functional.
Assay [24] deals with SMMC-7721. Put plainly: Induction of apoptosis in human SMMC7721 cells assessed as necrotic cells at 0.18 uM after 24 hrs by Annexin V-APC/7-AAD staining based flow cytometry (reference value: 0.77%). The format is functional.

What is called pIC50 is the negative decadic logarithm of the IC50, by convention in mol/L. `COC(=O)[C@]1(C)CCC[C@]2(C)c3cc(Br)c4nc(NCc5cc(Cl)cc(Cl)c5O)[nH]c4c3CC[C@@H]12`: the pIC50 in the assay on HepG2 is 5.62; in the assay on L02 it was 5.14; with SMMC-7721 [1], 6.03.

Take `COc1cc([C@@H]2c3cc4c(cc3[C@@H](O[C@@H]3O[C@@H]5CO[C@@H](C)O[C@H]5[C@H](O)[C@H]3O)[C@H]3COC(=O)[C@H]23)OCO4)cc(OC)c1O` [ETOPOSIDE]: the pIC50 was 6.08 in the assay with HepG2, 5.42 in the assay on L02 and 6.82 in the assay with SMMC-7721 [1].

With `COC(=O)[C@]1(C)CCC[C@]2(C)c3cc(Br)c4nc(/N=C/c5cc(Br)ccc5O)[nH]c4c3CC[C@@H]12`, the pIC50 is 6.14 in the assay with HepG2, 5.14 in the assay with L02 and 5.55 in the assay with SMMC-7721 [1].

As to `COC(=O)[C@]1(C)CCC[C@]2(C)c3cc(Br)c4nc(NCc5cc(Br)ccc5O)[nH]c4c3CC[C@@H]12`, the results for the negative-log IC50 (pIC50) with HepG2, in the assay with L02 and with SMMC-7721 [1] were 5.38, 4.67 and 5.40, respectively.

For `COC(=O)[C@]1(C)CCC[C@]2(C)c3cc(Br)c4nc(/N=C/c5cc(F)ccc5O)[nH]c4c3CC[C@@H]12`, the pIC50 with HepG2 was 6.21; in the assay with L02, 5.41; in the assay with SMMC-7721 [1], 6.44. For the same compound, the Activity in the assay on SMMC-7721 [2] was 81.27%; in the assay on SMMC-7721 [3], “Dose-dependent effect”; in the assay with SMMC-7721 [4], “Dose-dependent effect”; in the assay on SMMC-7721 [5] it was 29.05%; with SMMC-7721 [6] it was 9.75%; with SMMC-7721 [7], 17.11%. The Activity is 10.21% in the assay with SMMC-7721 [8]; 12.71% with SMMC-7721 [9]; 10.44% in the assay on SMMC-7721 [10]; 76.93% with SMMC-7721 [11]; 22.69% in the assay with SMMC-7721 [12]; 19.61% in the assay with SMMC-7721 [13]. For the same compound, the Activity came out at 10.91% with SMMC-7721 [14]; 6.45% in the assay on SMMC-7721 [15]; 0.87% in the assay with SMMC-7721 [16]; 73.94% in the assay with SMMC-7721 [17]; 5.96% with SMMC-7721 [18]; 59.86% with SMMC-7721 [19]. Moreover, the Activity in the assay with SMMC-7721 [20] amounted to 1%; in the assay with SMMC-7721 [21], 7.97%; in the assay with SMMC-7721 [22] it was 66.4%; in the assay on SMMC-7721 [23] it was 75.91%; in the assay on SMMC-7721 [24], 0.95%.

As to `COC(=O)[C@]1(C)CCC[C@]2(C)c3cc(Br)c4nc(NCc5ccc6ccccc6c5O)[nH]c4c3CC[C@@H]12`, the figures for the pIC50 in the assay on HepG2, with L02 and in the assay on SMMC-7721 [1] were 4.67, below 4.30 and 4.65, respectively.

Consider `COC(=O)[C@]1(C)CCC[C@]2(C)c3cc(Br)c([N+](=O)[O-])c([N+](=O)[O-])c3CC[C@@H]12`, for which the pIC50 in the assay with HepG2 is 4.47; in the assay with L02, below 4.30; with SMMC-7721 [1], 4.53.

Turning to `COC(=O)[C@]1(C)CCC[C@]2(C)c3cc(Br)c4nc(NCc5cc(Cl)ccc5O)[nH]c4c3CC[C@@H]12`, the figures for the pIC50 with HepG2, with L02 and in the assay on SMMC-7721 [1] were 4.93, 4.57 and 5.50, respectively.

With `COC(=O)[C@]1(C)CCC[C@]2(C)c3cc(Br)c4nc(NCc5ccc(F)cc5O)[nH]c4c3CC[C@@H]12`, the pIC50 is 5.34 with HepG2, 4.66 with L02 and 4.98 in the assay on SMMC-7721 [1].

On to `COC(=O)[C@]1(C)CCC[C@]2(C)c3cc(Br)c4nc(/N=C/c5cccc(F)c5O)[nH]c4c3CC[C@@H]12`, for which the pIC50 with HepG2 is 6.37; in the assay on L02, 5.08; in the assay with SMMC-7721 [1], 5.70.

In the case of `COC(=O)[C@]1(C)CCC[C@]2(C)c3cc(Br)c4nc(NCc5ccccc5O)[nH]c4c3CC[C@@H]12`, the pIC50 with HepG2 was 4.65; with L02, below 4.30; with SMMC-7721 [1], 5.50.

On to `COC(=O)[C@]1(C)CCC[C@]2(C)c3cc(Br)c4nc(/N=C/c5ccccc5O)[nH]c4c3CC[C@@H]12`, for which the values for the pIC50 in the assay with HepG2, in the assay with L02 and in the assay with SMMC-7721 [1] were 6.68, 5.20 and 5.61, respectively.

Regarding `COC(=O)[C@]1(C)CCC[C@]2(C)c3cc(Br)c4nc(NCc5cc(F)ccc5O)[nH]c4c3CC[C@@H]12`, the figures for the pIC50 with HepG2, in the assay with L02 and in the assay on SMMC-7721 [1] were 5.34, 4.50 and 4.98, respectively.
